Assay results reported in patent US20240018133A1, “MODULATORS OF THE INTEGRATED STRESS PATHWAY” (Calico Life Sciences LLC, priority 2019, published 2024).
pEC50: −log10 of the molar value.

Test system: ATF4 luciferase reporter (human full-length ATF4 5'-UTR fused to firefly luciferase) in HEK293T cells
Test: ATF4-Luc assay (in vitro model of VWMD): HEK293T cells carrying ATF4 luciferase reporter, tunicamycin-treated
Format: cell-based
Settings: Homo sapiens, HEK-293T, 1 μg/mL tunicamycin, 7 hours, One Glo luminescence
In short: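 Stable HEK293T line with human ATF4 5′-UTR–firefly luciferase reporter treated with 1 μg/mL tunicamycin plus 200 nM compound for 7 h. Luminescence read; EC50 derived.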

Compound	pEC50
O=C(COc1ccc(Cl)c(F)c1)NC12CC(NC(=O)[C@H]3C=Cc4cc(Cl)ccc4O3)(C1)C2 [Compound 307, (2R)-6-chloro-N-{3-[2-(4-chloro-3-fluorophenoxy)acetamido]bicyclo[1.1.1]pentan-1-yl}-2H-1-benzopyran-2-carboxamide]	> 8.00
O=C(COc1ccc(Cl)c(F)c1)NC12CC(NC(=O)[C@H]3C[C@@H](NCCO)c4cc(Cl)ccc4O3)(C1)C2 [Compound 308, (2R,4R)-6-chloro-N-{3-[2-(4-chloro-3-fluorophenoxy)acetamido]bicyclo[1.1.1]pentan-1-yl}-4-[(2-hydroxyethyl)amino]-3,4-dihydro-2H-1-benzopyran-2-carboxamide]	7.30 to 8.00
O=C(COc1ccc(Cl)c(F)c1)NC12CC(NC(=O)[C@@H]3C[C@H](NCCO)c4cc(Cl)ccc4O3)(C1)C2 [Compound 309, (2S,4S)-6-chloro-N-{3-[2-(4-chloro-3-fluorophenoxy)acetamido]bicyclo[1.1.1]pentan-1-yl}-4-[(2-hydroxyethyl)amino]-3,4-dihydro-2H-1-benzopyran-2-carboxamide]	> 8.00
O=C(COc1ccc(Cl)c(F)c1)NC12CCC(NC(=O)C3CC(=O)c4cc(Cl)ccc4O3)(C1)C2 (stereo not drawn) [Compound 310, 6-chloro-N-{4-[2-(4-chloro-3-fluorophenoxy)acetamido]bicyclo[2.1.1]hexan-1-yl}-4-oxo-3,4-dihydro-2H-1-benzopyran-2-carboxamide]	7.30 to 8.00
O=C(NC12CCC(NC(=O)C3CC(=O)c4cc(Cl)ccc4O3)(C1)C2)c1ccc(OC(F)(F)F)cn1 (stereo not drawn) [Compound 311, N-{4-[(6-chloro-4-oxo-3,4-dihydro-2H-1-benzopyran-2-carbonyl)amino]bicyclo[2.1.1]hexan-1-yl}-5-(trifluoromethoxy)pyridine-2-carboxamide]	6.60 to 7.30
O=C(NC12CCC(NC(=O)C3CC(=O)c4cc(Cl)ccc4O3)(C1)C2)OCc1ccccc1 (stereo not drawn) [Compound 312, benzyl {4-[(6-chloro-4-oxo-3,4-dihydro-2H-1-benzopyran-2-carbonyl)amino]bicyclo[2.1.1]hexan-1-yl}carbamate]	5.70 to 6.30
O=C(COc1ccc(Cl)c(F)c1)NC12CC(NC(=O)c3cc(=O)c4ccc(F)cc4o3)(C1)C2 [Compound 313, N-{3-[2-(4-chloro-3-fluorophenoxy)acetamido]bicyclo[1.1.1]pentan-1-yl}-7-fluoro-4-oxo-4H-1-benzopyran-2-carboxamide]	7.30 to 8.00
CNC1CC(C(=O)NC23CC(NC(=O)COc4ccc(Cl)c(F)c4)(C2)C3)Oc2ccc(Cl)cc21 (stereo not drawn) [Compound 314, 6-chloro-N-{3-[2-(4-chloro-3-fluorophenoxy)acetamido]bicyclo[1.1.1]pentan-1-yl}-4-(methylamino)-3,4-dihydro-2H-1-benzopyran-2-carboxamide]	> 8.00
O=C(COc1ccc(Cl)c(F)c1)NC12CC(NC(=O)C3=CC(O)c4cc(Cl)ccc4O3)(C1)C2 (stereo not drawn) [Compound 315, 6-chloro-N-{3-[2-(4-chloro-3-fluorophenoxy)acetamido]bicyclo[1.1.1]pentan-1-yl}-4-hydroxy-4H-1-benzopyran-2-carboxamide]	> 8.00
O=C(COc1ccc(Cl)c(F)c1)NC12CC(NC(=O)[C@@H]3C[C@@H](N[C@H]4C[C@@H](O)C4)c4cc(Cl)ccc4O3)(C1)C2 [Compound 316, (2S,4R)-6-chloro-N-{3-[2-(4-chloro-3-fluorophenoxy)acetamido]bicyclo[1.1.1]pentan-1-yl}-4-{[(1s,3S)-3-hydroxycyclobutyl]amino}-3,4-dihydro-2H-1-benzopyran-2-carboxamide]	6.60 to 7.30
O=C(COc1ccc(Cl)c(F)c1)NC12CC(NC(=O)C3=Cc4ccc(Cl)cc4OC3)(C1)C2 [Compound 317, 7-chloro-N-{3-[2-(4-chloro-3-fluorophenoxy)acetamido]bicyclo[1.1.1]pentan-1-yl}-2H-1-benzopyran-3-carboxamide]	7.30 to 8.00
O=C(COc1ccc(Cl)c(F)c1)NC12CC(NC(=O)c3cc(=O)c4cc(Cl)ccc4o3)(C1)C2 [Compound 318, 6-chloro-N-{3-[2-(4-chloro-3-fluorophenoxy)acetamido]bicyclo[1.1.1]pentan-1-yl}-4-oxo-4H-1-benzopyran-2-carboxamide]	> 8.00
O=C(COc1ccc(Cl)c(F)c1)NC12CC(NC(=O)[C@@H]3C[C@H](NCC(F)(F)F)c4cc(Cl)ccc4O3)(C1)C2 [Compound 319, (2S,4S)-6-chloro-N-{3-[2-(4-chloro-3-fluorophenoxy)acetamido]bicyclo[1.1.1]pentan-1-yl}-4-[(2,2,2-trifluoroethyl)amino]-3,4-dihydro-2H-1-benzopyran-2-carboxamide]	6.60 to 7.30
C[C@@]1(C(=O)NC23CC(NC(=O)COc4ccc(Cl)c(F)c4)(C2)C3)Oc2ccc(Cl)cc2C1=O [Compound 320, (2R)-5-chloro-N-{3-[2-(4-chloro-3-fluorophenoxy)acetamido]bicyclo[1.1.1]pentan-1-yl}-2-methyl-3-oxo-2,3-dihydro-1-benzofuran-2-carboxamide]	5.70 to 6.30
O=C(COc1ccc(F)c(F)c1)NC12CC(NC(=O)[C@@H]3CC(=O)c4cc(F)c(F)cc4O3)(C1)C2 [Compound 321, (2S)—N-{3-[2-(3,4-difluorophenoxy)acetamido]bicyclo[1.1.1]pentan-1-yl}-6,7-difluoro-4-oxo-3,4-dihydro-2H-1-benzopyran-2-carboxamide]	6.60 to 7.30
COc1ccc2oc(C(=O)NC34CC(NC(=O)COc5ccc(Cl)c(F)c5)(C3)C4)cc(=O)c2n1 [Compound 322, N-{3-[2-(4-chloro-3-fluorophenoxy)acetamido]bicyclo[1.1.1]pentan-1-yl}-6-methoxy-4-oxo-4H-pyrano[3,2-b]pyridine-2-carboxamide]	6.60 to 7.30
O=C(COc1ccc(Cl)c(F)c1)NC12CC(NC(=O)[C@@H]3C[C@@H](NCC(F)(F)F)c4cc(Cl)ccc4O3)(C1)C2 [Compound 323, (2S,4R)-6-chloro-N-{3-[2-(4-chloro-3-fluorophenoxy)acetamido]bicyclo[1.1.1]pentan-1-yl}-4-[(2,2,2-trifluoroethyl)amino]-3,4-dihydro-2H-1-benzopyran-2-carboxamide]	6.60 to 7.30
CN(C(=O)c1cc(=O)c2cc(Cl)ccc2o1)C12CC(NC(=O)COc3ccc(Cl)c(F)c3)(C1)C2 [Compound 324, 6-chloro-N-{3-[2-(4-chloro-3-fluorophenoxy)acetamido]bicyclo[1.1.1]pentan-1-yl}-N-methyl-4-oxo-4H-1-benzopyran-2-carboxamide]	6.30 to 6.60
O=C(COc1ccc(Cl)c(F)c1)NC12CC(NC(=O)[C@H]3CN(CC4(O)CC4)c4cc(Cl)ccc4O3)(C1)C2 [Compound 325, (2R)-6-chloro-N-{3-[2-(4-chloro-3-fluorophenoxy)acetamido]bicyclo[1.1.1]pentan-1-yl}-4-[(1-hydroxycyclopropyl)methyl]-3,4-dihydro-2H-1,4-benzoxazine-2-carboxamide]	7.30 to 8.00
O=C(COc1ccc(Cl)c(F)c1)NC12CCC(NC(=O)C3CC(=O)c4cc(Cl)ccc4O3)(CC1)CC2 (stereo not drawn) [Compound 326, 6-chloro-N-{4-[2-(4-chloro-3-fluorophenoxy)acetamido]bicyclo[2.2.2]octan-1-yl}-4-oxo-3,4-dihydro-2H-1-benzopyran-2-carboxamide]	7.30 to 8.00
O=C(COc1ccc(Cl)c(F)c1)NC12CC(NC(=O)[C@H]3C[C@H](NCC(F)(F)F)c4cc(Cl)ccc4O3)(C1)C2 [Compound 327, (2R,4S)-6-chloro-N-{3-[2-(4-chloro-3-fluorophenoxy)acetamido]bicyclo[1.1.1]pentan-1-yl}-4-[(2,2,2-trifluoroethyl)amino]-3,4-dihydro-2H-1-benzopyran-2-carboxamide]	6.60 to 7.30
O=C(COc1ccc(Cl)c(F)c1)NC12CC(NC(=O)[C@H]3C[C@@H](N[C@H]4C[C@@H](O)C4)c4cc(Cl)ccc4O3)(C1)C2 [Compound 328, (2R,4R)-6-chloro-N-{3-[2-(4-chloro-3-fluorophenoxy)acetamido]bicyclo[1.1.1]pentan-1-yl}-4-{[(1s,3S)-3-hydroxycyclobutyl]amino}-3,4-dihydro-2H-1-benzopyran-2-carboxamide]	6.60 to 7.30
O=C(COc1cnc(C(F)(F)F)nc1)NC12CC(NC(=O)[C@H]3CC(=O)c4cc(Cl)ccc4O3)(C1)C2 [Compound 329, (2R)-6-chloro-4-oxo-N-[3-(2-{[2-(trifluoromethyl)pyrimidin-5-yl]oxy}acetamido)bicyclo[1.1.1]pentan-1-yl]-3,4-dihydro-2H-1-benzopyran-2-carboxamide]	6.60 to 7.30
COC1CC(C(=O)NC23CC(NC(=O)COc4ccc(Cl)c(F)c4)(C2)C3)Oc2ccc(F)cc21 (stereo not drawn) [Compound 330, N-{3-[2-(4-chloro-3-fluorophenoxy)acetamido]bicyclo[1.1.1]pentan-1-yl}-6-fluoro-4-methoxy-3,4-dihydro-2H-1-benzopyran-2-carboxamide]	6.60 to 7.30
O=C(COc1ccc(Cl)cn1)NC12CC(NC(=O)[C@H]3CC(=O)c4cc(Cl)ccc4O3)(C1)C2 [Compound 331, (2R)-6-chloro-N-(3-{2-[(5-chloropyridin-2-yl)oxy]acetamido}bicyclo[1.1.1]pentan-1-yl)-4-oxo-3,4-dihydro-2H-1-benzopyran-2-carboxamide]	6.60 to 7.30
O=C(COc1ccc(Cl)c(F)c1)NC12CC(NC(=O)C3CC(=O)c4cc(F)ccc4O3)(C1)C2 (stereo not drawn) [Compound 332, N-{3-[2-(4-chloro-3-fluorophenoxy)acetamido]bicyclo[1.1.1]pentan-1-yl}-6-fluoro-4-oxo-3,4-dihydro-2H-1-benzopyran-2-carboxamide]	> 8.00
COc1ncc(OCC(=O)NC23CC(NC(=O)[C@H]4CC(=O)c5cc(Cl)ccc5O4)(C2)C3)cn1 [Compound 333, (2R)-6-chloro-N-(3-{2-[(2-methoxypyrimidin-5-yl)oxy]acetamido}bicyclo[1.1.1]pentan-1-yl)-4-oxo-3,4-dihydro-2H-1-benzopyran-2-carboxamide]	6.30 to 6.60
